Reference: patent US7358248B2, “Substituted amino carboxylic acids” (The Institute for Pharmaceutical Discovery LLC, priority 2003, dated 2008)

Row | melting point | SMILES
1 | 59 to 60 °C | COc1ccc(CC(=O)N[C@@H](CSCc2ccc(-c3ccc(-c4c(Cc5ccccc5)oc5ccccc45)cc3)cc2)C(=O)O)cc1 [Example 81, (2R)-2-(4-Methoxyphenylacetylamino)-3-[4′-(2-benzylbenzofuran-3-yl)biphen-4-ylmethylsulfanyl]-propionic acid]
2 | 102 to 103 °C | O=C(Cc1ccc([N+](=O)[O-])cc1)N[C@@H](CSCc1ccc(-c2ccc(-c3c(Cc4ccccc4)oc4ccccc34)cc2)cc1)C(=O)O [Example 77, (2R)-2-(4-Nitrophenylacetylamino)-3-[4′-(2-benzylbenzofuran-3-yl)biphen-4-ylmethylsulfanyl]-propionic acid]
3 | 148 to 149 °C | O=C(Cc1ccc(O)cc1)N[C@@H](CSCc1ccc(-c2ccc(-c3c(Cc4ccccc4)oc4ccccc34)cc2)cc1)C(=O)O [Example 79, (2R)-2-(4-Hydroxyphenylacetylamino)-3-[4′-(2-benzylbenzofuran-3-yl)biphen-4-ylmethylsulfanyl]-propionic acid]
4 | 81 to 82 °C | COC(=O)N[C@@H](CSCc1ccc(-c2ccc(-n3ccc4ccccc43)cc2)cc1)C(=O)O [Example 12, (2R)-3-(4′-Indol-1-ylbiphen-4-ylmethylsulfanyl)-2-methoxycarbonylamino-propionic acid]
5 | 77 to 78 °C | O=C(Cc1ccccc1)N[C@@H](CSCc1ccc(-c2ccc(-c3c(Cc4ccccc4)oc4ccccc34)cc2)cc1)C(=O)O [Example 71, (2R)-2-Phenylacetylamino-3-[4′-(2-benzylbenzofuran-3-yl)biphen-4-ylmethyl-sulfanyl]-propionic acid]
6 | 197 to 198 °C | O=C(Cc1cccc([N+](=O)[O-])c1)N[C@@H](C[S+]([O-])Cc1ccc(-c2ccc(-n3ccc4ccccc43)cc2)cc1)C(=O)O (stereo partly drawn) [Example 17, (2R)-3-(4′-Indol-1-ylbiphen-4-ylmethylsulfinyl)-2-[2-(3-nitrophenyl)acetylamino]-propionic acid]
7 | 94 °C | O=C(Cc1cccc([N+](=O)[O-])c1)N[C@@H](CSCc1ccc(-c2ccc(-n3ccc4ccccc43)cc2)cc1)C(=O)O [Example 10, (2R)-3-(4′-Indol-1-ylbiphen-4-ylmethylsulfanyl)-2-[2-(3-nitrophenyl)acetylamino]-propionic acid]
8 | 170 to 172 °C | Nc1ccc(CC(=O)N[C@@H](CSCc2ccc(-c3ccc(-c4c(Cc5ccccc5)oc5ccccc45)cc3)cc2)C(=O)O)cc1 [Example 82, (2R)-2-(4-Aminophenylacetylamino)-3-[4′-(2-benzylbenzofuran-3-yl)biphen-4-ylmethylsulfanyl]-propionic acid]
9 | 149 to 150 °C | O=C(N[C@@H](CSCc1ccc(-c2ccc(-c3c(Cc4ccccc4)oc4ccccc34)cc2)cc1)C(=O)O)c1ccc2nc[nH]c2c1 [Example 73]
10 | 138 to 139 °C | O=C(N[C@@H](CSCc1ccc(-c2ccc(-c3c(Cc4ccccc4)oc4ccccc34)cc2)cc1)C(=O)O)c1ccccc1 [Example 70, (2R)-2-Benzoylamino-3-[4′-(2-benzylbenzofuran-3-yl)biphen-4-ylmethylsulfanyl]-propionic acid]
11 | 82 to 84 °C | O=C(Cc1ccc(F)cc1)N[C@@H](CSCc1ccc(-c2ccc(-c3c(Cc4ccccc4)oc4ccccc34)cc2)cc1)C(=O)O [Example 74, (2R)-2-(4-Fluorophenylacetylamino)-3-[4′-(2-benzylbenzofuran-3-yl)biphen-4-ylmethylsulfanyl]-propionic acid]
12 | 108 to 109 °C | O=C(Cc1cccc([N+](=O)[O-])c1)N[C@@H](CSCc1ccc(-c2ccc(-c3c(Cc4ccccc4)oc4ccccc34)cc2)cc1)C(=O)O [Example 75, (2R)-2-(3-Nitrophenylacetylamino)-3-[4′-(2-benzylbenzofuran-3-yl)biphen-4-ylmethylsulfanyl]-propionic acid]
13 | 195 °C (dec.) | O=C(O)[C@H](CSCc1ccc(-c2ccc(-n3ccc4ccccc43)cc2)cc1)NC(=O)N1CCOCC1 [Example 14, (2R)-3-(4′-Indol-1-ylbiphen-4-ylmethylsulfanyl)-2-[(morpholine-4-carbonyl)-amino]-propionic acid]
14 | 131 to 132 °C | CC(=O)N[C@@H](CSCc1ccc(-c2ccc(-c3c(Cc4ccccc4)oc4ccccc34)cc2)cc1)C(=O)O [Example 80, (2R)-2-Acetylamino-3-[4′-(2-benzylbenzofuran-3-yl)biphen-4-ylmethylsulfanyl]-propionic acid]
15 | 189 to 191 °C | O=C(Cc1ccccc1[N+](=O)[O-])N[C@@H](CSCc1ccc(-c2ccc(-c3c(Cc4ccccc4)oc4ccccc34)cc2)cc1)C(=O)O [Example 78, (2R)-2-(2-Nitrophenylacetylamino)-3-[4′-(2-benzylbenzofuran-3-yl)biphen-4-ylmethylsulfanyl]-propionic acid]
16 | 223 to 226 °C | CC(=O)NC(CSCc1ccc(-c2nc(-c3ccccc3)cc(-c3ccccc3)n2)cc1)C(=O)O (stereo not drawn) [Example 95, 2-Acetylamino-3-[4-(4,6-diphenyl-pyrimidin-2-yl)-benzylsulfanyl]-propionic acid]

Row | SMILES | melting point
17 | CC(C)(C)OC(=O)N[C@@H](C[S+]([O-])Cc1ccc(-c2ccc(-n3ccc4ccccc43)cc2)cc1)C(=O)O (stereo partly drawn) [Example 7, (2R)-tert-Butoxycarbonylamino-3-(4′-indol-1-ylbiphen-4-ylmethylsulfinyl)-propionic acid] | 169 to 170 °C
18 | CC(C)(C)OC(=O)N[C@@H](CSCc1ccc(-c2ccc(-c3ccc4c(c3)OCO4)cc2)cc1)C(=O)O (stereo in doubt) [Example 101, 3-(4′-Benzo[1,3]dioxol-5-yl-biphenyl-4-ylmethylsulfanyl)-2-tert-butoxycarbonylamino-propionic acid] | 178 to 180 °C
19 | CC(C)(C)OC(=O)N[C@@H](CSCc1ccc(-c2ccc(-c3cccc4c3sc3ccccc34)cc2)cc1)C(=O)O [Example 107, 2-tert-Butoxycarbonylamino-3-(4′-dibenzothiophen-4-yl-biphenyl-4-ylmethyl-sufanyl)-propionic acid] | 108 to 110 °C
20 | CC(C)COC(=O)N[C@@H](CSCc1ccc(-c2ccc(-n3ccc4ccccc43)cc2)cc1)C(=O)O [Example 13, (2R)-3-(4′-Indol-1-ylbiphen-4-ylmethylsulfanyl)-2-isobutoxycarbonylamino-propionic acid] | 85 to 86 °C
21 | CC(C)(C)OC(=O)N[C@@H](C[S+]([O-])Cc1ccc(-c2ccc(-c3c(Cc4ccccc4)oc4ccccc34)cc2)cc1)C(=O)O (stereo partly drawn) [Example 67, (2R,4RS)-3-[4′-(2-benzylbenzofuran-3-yl)biphen-4-ylmethylsulfinyl]-2-tert-butoxycarbonylaminopropionic acid] | 195 to 196 °C
22 | CC(C)(C)OC(=O)N[C@@H](CS(=O)(=O)Cc1ccc(-c2ccc(-c3c(Cc4ccccc4)oc4ccccc34)cc2)cc1)C(=O)O [Example 68, (2R)-3-[4′-(2-benzylbenzofuran-3-yl)biphen-4-ylmethylsulfonyl]-2-tert-butoxycarbonylaminopropionic acid] | 202 to 203 °C
23 | CC(C)(C)OC(=O)N[C@@H](CSCc1ccc(-c2ccc(-c3c(Cc4ccccc4)oc4ccccc34)cc2)cc1)C(=O)O [Example 66, (2R)-3-[4′-(2-benzylbenzofuran-3-yl)biphen-4-ylmethylsulfanyl]-2-tert-butoxy-carbonylamino-propionic acid] | 89 to 90 °C
24 | CC(C)(C)OC(=O)NC(CSCc1ccc(-c2nc(-c3ccccc3)cc(-c3ccccc3)n2)cc1)C(=O)O (stereo not drawn) [Example 93, 2-tert-Butoxy carbonylamino-3-[4-(4,6-diphenylpyrimidin-2-yl)-benzylsulfanyl]propionic acid] | 250 °C (dec.)
